Test results reported in the supplement of paper PMC7029842.
≈ marks a conversion by molar mass, not a printed value. ± gives the standard deviation of the averaged measurements.

Experiments:
Test in all cases: minimum inhibitory concentration (MIC)
Settings in all cases: incubation time: 18 h
[1] = system: Burkholderia contaminans ISS isolate s56
[2] = system: Burkholderia cepacia ISS isolate s20
[3] = system: Burkholderia cepacia ISS isolate s31
[4] = system: Burkholderia cepacia ISS isolate s57
[5] = system: Burkholderia cepacia ISS isolate s37
[6] = system: Burkholderia cepacia ISS isolate s15
[7] = system: Burkholderia cepacia ISS isolate s12
[8] = system: Burkholderia cepacia ISS isolate s18
[9] = system: Burkholderia cepacia ISS isolate s35
[10] = system: Burkholderia cepacia ISS isolate s24
[11] = system: Burkholderia cepacia ISS isolate s41
[12] = system: Burkholderia contaminans ISS isolate s52
[13] = system: Burkholderia cepacia ISS isolate s25
[14] = system: Burkholderia cepacia ISS isolate s23
[15] = system: Burkholderia cepacia ISS isolate s16
[16] = system: Burkholderia contaminans ISS isolate s53
[17] = system: Burkholderia cepacia ISS isolate s28
[18] = system: Burkholderia contaminans ISS isolate s54
[19] = system: Burkholderia cepacia ISS isolate s36
[20] = system: Burkholderia contaminans J2956
[21] = system: Burkholderia contaminans ISS isolate s47
[22] = system: Burkholderia cepacia ISS isolate s22
[23] = system: Burkholderia cepacia ATCC25416
[24] = system: Burkholderia cepacia ISS isolate s9
[25] = system: Burkholderia cepacia ISS isolate s39
[26] = system: Burkholderia cepacia ISS isolate s33

Structure (SMILES) | minimum inhibitory concentration [1] [mg/L] | minimum inhibitory concentration [2] [mg/L] | minimum inhibitory concentration [3] [mg/L] | minimum inhibitory concentration [4] [mg/L] | minimum inhibitory concentration [5] [mg/L] | minimum inhibitory concentration [6] [mg/L] | minimum inhibitory concentration [7] [mg/L] | minimum inhibitory concentration [8] [mg/L] | minimum inhibitory concentration [9] [mg/L] | minimum inhibitory concentration [10] [mg/L] | minimum inhibitory concentration [11] [mg/L] | minimum inhibitory concentration [12] [mg/L] | minimum inhibitory concentration [13] [mg/L] | minimum inhibitory concentration [14] [mg/L] | minimum inhibitory concentration [15] [mg/L] | minimum inhibitory concentration [16] [mg/L] | minimum inhibitory concentration [17] [mg/L] | minimum inhibitory concentration [18] [mg/L] | minimum inhibitory concentration [19] [mg/L] | minimum inhibitory concentration [20] [mg/L] | minimum inhibitory concentration [21] [mg/L] | minimum inhibitory concentration [22] [mg/L] | minimum inhibitory concentration [23] [mg/L] | minimum inhibitory concentration [24] [mg/L] | minimum inhibitory concentration [25] [mg/L] | minimum inhibitory concentration [26] [mg/L]
CO/N=C(\C(=O)N[C@@H]1C(=O)N2C(C(=O)O)=C(COC(C)=O)CS[C@H]12)c1csc(N)n1 [cefotaxime] | > 64 | 20.2 ± 9.2 (≈ 44.3 µM) | 25.4 ± 9.2 (≈ 55.8 µM) | 11.3 ± 5.7 (≈ 24.8 µM) | 20.2 ± 9.2 (≈ 44.3 µM) | 16 (≈ 35.1 µM) | 16 ± 12 (≈ 35.1 µM) | 20.2 ± 9.2 (≈ 44.3 µM) | 16 ± 12 (≈ 35.1 µM) | 20.2 ± 9.2 (≈ 44.3 µM) | 12.7 ± 14 (≈ 27.9 µM) | > 64 | 12.7 ± 14 (≈ 27.9 µM) | 20.2 ± 9.2 (≈ 44.3 µM) | 20.2 ± 9.2 (≈ 44.3 µM) | > 64 | 20.2 ± 9.2 (≈ 44.3 µM) | > 64 | 16 ± 12 (≈ 35.1 µM) | > 64 | > 64 | 20.2 ± 9.2 (≈ 44.3 µM) | 20.2 ± 9.2 (≈ 44.3 µM) | 20.2 ± 9.2 (≈ 44.3 µM) | 12.7 ± 14 (≈ 27.9 µM) | 20.2 ± 9.2 (≈ 44.3 µM)
CC(C)(O/N=C(\C(=O)N[C@@H]1C(=O)N2C(C(=O)[O-])=C(C[n+]3ccccc3)CS[C@H]12)c1csc(N)n1)C(=O)O [ceftazidime] | 8 (≈ 14.6 µM) | 4 (≈ 7.32 µM) | 4 (≈ 7.32 µM) | 3.17 ± 1.1 (≈ 5.81 µM) | 2 ± 2 (≈ 3.66 µM) | 4.58 ± 1.1 (≈ 8.38 µM) | 4 (≈ 7.32 µM) | 4 (≈ 7.32 µM) | 3.17 ± 1.1 (≈ 5.81 µM) | 4 (≈ 7.32 µM) | 3.17 ± 1.1 (≈ 5.81 µM) | 8 (≈ 14.6 µM) | 4 (≈ 7.32 µM) | 4 (≈ 7.32 µM) | 4 (≈ 7.32 µM) | 8 (≈ 14.6 µM) | 4 (≈ 7.32 µM) | 8 (≈ 14.6 µM) | 4 (≈ 7.32 µM) | 8 (≈ 14.6 µM) | 8 (≈ 14.6 µM) | 4 (≈ 7.32 µM) | 12.7 ± 4.6 (≈ 23.2 µM) | 4 (≈ 7.32 µM) | 3.17 ± 1.1 (≈ 5.81 µM) | 4 (≈ 7.32 µM)
O=C(N[C@H](CO)[C@H](O)c1ccc([N+](=O)[O-])cc1)C(Cl)Cl [chloramphenicol] | 6.35 ± 2.3 (≈ 19.7 µM) | 11.7 ± 9.8 (≈ 36.2 µM) | 5.85 ± 4.9 (≈ 18.1 µM) | 8 (≈ 24.8 µM) | 5.04 ± 3.5 (≈ 15.6 µM) | 5.04 ± 2.3 (≈ 15.6 µM) | 7.37 ± 4.2 (≈ 22.8 µM) | 9.28 ± 2.6 (≈ 28.7 µM) | 5.04 ± 2.3 (≈ 15.6 µM) | 9.28 ± 11 (≈ 28.7 µM) | 4 ± 3.1 (≈ 12.4 µM) | 8 (≈ 24.8 µM) | 5.85 ± 4.9 (≈ 18.1 µM) |  | 9.28 ± 2.6 (≈ 28.7 µM) | 8 (≈ 24.8 µM) | 5.85 ± 4.9 (≈ 18.1 µM) | 8 (≈ 24.8 µM) | 8 ± 16 (≈ 24.8 µM) | 8 (≈ 24.8 µM) | 5.04 ± 2.3 (≈ 15.6 µM) | 7.37 ± 12 (≈ 22.8 µM) | 6.35 ± 2.3 (≈ 19.7 µM) | 4.64 ± 5.6 (≈ 14.4 µM) | 4 ± 3.1 (≈ 12.4 µM) | 5.04 ± 2.3 (≈ 15.6 µM)
C[C@H]1COc2c(N3CCN(C)CC3)c(F)cc3c(=O)c(C(=O)O)cn1c23 [levofloxacin] | 0.5 (≈ 1.38 µM) |  | 8 ± 6.1 (≈ 22.1 µM) | 0.63 ± 0.29 (≈ 1.74 µM) | 1.26 ± 0.58 (≈ 3.49 µM) | 1 (≈ 2.77 µM) |  |  | 1.59 ± 1.7 (≈ 4.39 µM) | 10.1 ± 15 (≈ 27.9 µM) |  | 0.5 (≈ 1.38 µM) | 6.35 ± 2.3 (≈ 17.6 µM) | 8 ± 6.1 (≈ 22.1 µM) |  | 0.5 (≈ 1.38 µM) | 10.1 ± 15 (≈ 27.9 µM) | 0.315 ± 0.14 (≈ 0.872 µM) | 1.26 ± 0.87 (≈ 3.49 µM) | 0.5 (≈ 1.38 µM) | 0.5 (≈ 1.38 µM) | 8 ± 6.1 (≈ 22.1 µM) | 0.63 ± 0.43 (≈ 1.74 µM) | 6.35 ± 2.3 (≈ 17.6 µM) |  | 1 (≈ 2.77 µM)
C[C@@H](O)[C@H]1C(=O)N2C(C(=O)O)=C(S[C@@H]3CN[C@H](C(=O)N(C)C)C3)[C@H](C)[C@H]12 [meropenem] | 5.04 ± 2.3 (≈ 13.1 µM) | 12.7 ± 14 (≈ 33.1 µM) | 25.4 ± 9.2 (≈ 66.2 µM) | 5.04 ± 2.3 (≈ 13.1 µM) | 32 (≈ 83.4 µM) |  | 20.2 ± 9.2 (≈ 52.6 µM) | 12.7 ± 14 (≈ 33.1 µM) | 32 (≈ 83.4 µM) | 20.2 ± 14 (≈ 52.6 µM) |  | 4 (≈ 10.4 µM) | 20.2 ± 9.2 (≈ 52.6 µM) | 20.2 ± 14 (≈ 52.6 µM) | 10.1 ± 6.9 (≈ 26.3 µM) | 4 (≈ 10.4 µM) | 25.4 ± 9.2 (≈ 66.2 µM) | 4 (≈ 10.4 µM) |  | 4 (≈ 10.4 µM) | 4 (≈ 10.4 µM) | 2 ± 1.5 (≈ 5.22 µM) | 16 ± 12 (≈ 41.7 µM) | 32 (≈ 83.4 µM) |  | 
CN(C)c1ccc(O)c2c1C[C@H]1C[C@H]3[C@H](N(C)C)C(O)=C(C(N)=O)C(=O)[C@@]3(O)C(O)=C1C2=O [minocycline] | 2.52 ± 1.1 (≈ 5.51 µM) | 6.35 ± 7 (≈ 13.9 µM) | 4 (≈ 8.74 µM) | 2 (≈ 4.37 µM) | 6.35 ± 2.3 (≈ 13.9 µM) | 12.7 ± 4.6 (≈ 27.8 µM) | 3.17 ± 1.1 (≈ 6.94 µM) | 6.35 ± 7 (≈ 13.9 µM) | 8 (≈ 17.5 µM) | 12.7 ± 14 (≈ 27.8 µM) | 8 ± 6.1 (≈ 17.5 µM) | 2 (≈ 4.37 µM) | 8 ± 6.1 (≈ 17.5 µM) | 8 ± 6.1 (≈ 17.5 µM) | 5.04 ± 3.5 (≈ 11 µM) | 2 (≈ 4.37 µM) | 10.1 ± 15 (≈ 22 µM) | 2 (≈ 4.37 µM) | 6.35 ± 6.9 (≈ 13.9 µM) | 2 (≈ 4.37 µM) | 3.17 ± 3.5 (≈ 6.94 µM) | 6.35 ± 2.3 (≈ 13.9 µM) | 1.59 ± 0.58 (≈ 3.47 µM) | 6.35 ± 6.9 (≈ 13.9 µM) | 6.35 ± 6.9 (≈ 13.9 µM) | 12.7 ± 4.6 (≈ 27.8 µM)
COc1cc(Cc2cnc(N)nc2N)cc(OC)c1OC.Cc1cc(NS(=O)(=O)c2ccc(N)cc2)no1 [trimethoprim/sulfamethoxazole] | 10.1 ± 4.6 | 25.4 ± 9.2 | 20.2 ± 9.2 | 16 | 32 | 25.4 ± 9.2 | 12.7 ± 4.6 | 12.7 ± 14 | 32 |  | 25.4 ± 9.2 | 6.35 ± 2.3 | 22.6 ± 11 | 25.4 ± 9.2 | 20.2 ± 14 | 8 | 25.4 ± 9.2 | 6.35 ± 2.3 | 32 | 8 | 8 | 20.2 ± 9.2 | 20.2 ± 9.2 |  | 20.2 ± 9.2 | 25.4 ± 9.2
